Assay results published in patent US4853467A, “Nitrogen containing derivatives of epipodophyllotoxin glucosides” (Bristol-Myers Company, priority 1987, dated 1989).
Values after ≈ are worked out from the molar mass of the structure shown.

Tests used:
[1] = system: small cell lung cancer, non-lymphocytic leukemia, and non-seminomatous testicular cancer; conditions: AMA Drug Evaluation, 5th Edition, 1983; cited from earlier work
Moser human colon = assay: In vitro cytotoxicity assay, Moser human colon; type: cell-based; conditions: two values per compound, four-fold serial dilution; for IC50: Homo sapiens
Protocol: (§1) The in vitro cytotoxicity assay involved growing various mammalian tumor cells, including human tumor cells, on microtitre plates employing established tissue culture methods. The concentration of each compound required to inhibit cell growth by 50% (IC50) was then determined by a four-fold serial dilution technique. The validity of the method has been supported by a report published in the "Proceedings of the American Association for Cancer Research", 1984, 25:1891 (Abst. No. 328). Tumor cells of the following types were employed for each compound tested: B16-F10 murine melanoma; Moser human colon; SW900 human lung and three human colon tumor cell lines namely HCT-116, HCT-VM, and HCT-VP, the latter two being resistant to teniposide (VM) and etoposide (VP), respectively. IC50 values less than 500 μg/ml are a positive indicator of antitumor activity. Table II presents IC50 values of various compounds of the present invention against the aforementioned cell lines.

P388 murine leukemia = assay: P388 Leukemia, antitumor activity against murine P388 leukemia; type: in vivo, murine (female CDF1 mice); conditions: i.p. on days 5 and 8; 10^6 P388 cells i.p.; maximum effect over doses; >=125 considered significant; etoposide values in parentheses are positive control in same experiment
Protocol: Female CDF1 mice were implanted intraperitoneally with a tumor inoculum of 10^6 ascites cells of P388 murine leukemia and treated with various doses of a test compound; four mice were used for each dose level and ten were used as saline-treated control. The compounds were administered by intraperitoneal injection on days 5 and 8 (day 1 being the day of tumor implantation). Antitumor activity was expressed as % T/C which is the ratio of the median survival time (MST) of drug-treated group to the MST of saline-treated control group. A compound showing a % T/C value of 125 or greater is generally considered to have significant antitumor activity in the P388 test. The experiment lasted 31 days at the end of which time the number of survivors was noted. Table I presents the results of the above-described evaluation; only the maximum % T/C and the dose showing the maximum effect are reported.

SW900 human lung = assay: In vitro cytotoxicity assay, SW900 human lung; type: cell-based; conditions: two values per compound, four-fold serial dilution; for IC50: Homo sapiens, SW900, SW900 human lung; for In vitro cytotoxicity IC50, SW900: SW900 human lung
Protocol: as §1

HCT/VP35 = assay: In vitro cytotoxicity assay, HCT/VP35 etoposide-resistant human colon tumor; type: cell-based; conditions: two values per compound, four-fold serial dilution; for In vitro cytotoxicity IC50, HCT/VP35: HCT/VP35, resistant to etoposide; for IC50: Homo sapiens, HCT/VP35, HCT/VP35, resistant to etoposide
Protocol: as §1

HCT/VM34 = assay: In vitro cytotoxicity assay, HCT/VM34 teniposide-resistant human colon tumor; type: cell-based; conditions: HCT/VM34, resistant to teniposide, two values per compound, four-fold serial dilution; for IC50: Homo sapiens
Protocol: as §1

B16-F10 murine melanoma = assay: In vitro cytotoxicity assay, B16-F10 murine melanoma; type: cell-based; conditions: two values per compound, four-fold serial dilution; for In vitro cytotoxicity IC50, B-16-F10: B16-F10 murine melanoma; for IC50: Mus musculus, B16-F10, B16-F10 murine melanoma, read-out: In vitro cytotoxicity IC50, B-16-F10
Protocol: as §1

HCT-116 = assay: In vitro cytotoxicity assay, HCT-116 human colon tumor; type: cell-based; conditions: two values per compound, four-fold serial dilution; for In vitro cytotoxicity IC50, HCT-116: HCT-116 human colon; for IC50: Homo sapiens, HCT-116, HCT-116 human colon
Protocol: as §1

| SMILES | activity in the treatment of cancers [1] | IC50 (Moser human colon) | In vitro cytotoxicity IC50, MOSER (Moser human colon) | Max % T/C (ratio of median survival time of drug-treated group to saline-treated control group) (P388 murine leukemia) | IC50 (SW900 human lung) | In vitro cytotoxicity IC50, SW900 (SW900 human lung) | In vitro cytotoxicity IC50, HCT/VP35 (HCT/VP35) | IC50 (HCT/VP35) | In vitro cytotoxicity IC50, HCT/VM34 (HCT/VM34) | IC50 (HCT/VM34) | In vitro cytotoxicity IC50, B-16-F10 (B16-F10 murine melanoma) | IC50 (B16-F10 murine melanoma) | In vitro cytotoxicity IC50, HCT-116 (HCT-116) | IC50 (HCT-116) |
| --- | --- | --- | --- | --- | --- | --- | --- | --- | --- | --- | --- | --- | --- | --- |
| COc1cc([C@@H]2c3cc4c(cc3[C@@H](O[C@@H]3O[C@@H]5CO[C@@H](C)O[C@H]5[C@H](O)[C@H]3O)[C@H]3COC(=O)[C@H]23)OCO4)cc(OC)c1O [etoposide] | active in the treatment of a variety of cancers including small cell lung cancer, non-lymphocytic leukemia, and non-seminomatous testicular cancer | – | – | – | – | – | – | – | – | – | – | – | – | – |
| COc1cc([C@@H]2c3cc4c(cc3[C@@H](O[C@@H]3O[C@@H]5CO[C@@H](C)O[C@H]5[C@H](O)[C@H]3O)[C@H]3COC(=O)[C@H]23)OCO4)cc(NC(=O)NCc2ccccc2)c1O [Example 11, 3'-Desmethoxy-3'-([[phenylmethyl)amino]carbonyl]amino etoposide] | – | 89 µg/mL (≈ 126 µM) | 93 µg/mL | 110% | 74 µg/mL (≈ 105 µM) | 84 µg/mL | 31 µg/mL | 30 µg/mL (≈ 42.5 µM) | 26 µg/mL | 24 µg/mL (≈ 34 µM) | 40 µg/mL | 44 µg/mL (≈ 62.3 µM) | 98 µg/mL | 58 µg/mL (≈ 82.1 µM) |
| CNc1cc([C@@H]2c3cc4c(cc3[C@@H](O[C@@H]3O[C@@H]5CO[C@@H](C)O[C@H]5[C@H](O)[C@H]3O)[C@H]3COC(=O)[C@H]23)OCO4)cc(OC)c1O [Example 4, 3'-Desmethoxy-3'-methylamine etoposide] | – | 56 µg/mL (≈ 95.3 µM) | 49 µg/mL | 170% | 63 µg/mL (≈ 107 µM) | – | 47 µg/mL | 40 µg/mL (≈ 68.1 µM) | 33 µg/mL | 23 µg/mL (≈ 39.1 µM) | 17.9 µg/mL | 13.9 µg/mL (≈ 23.7 µM) | 15.7 µg/mL | 16.2 µg/mL (≈ 27.6 µM) |
| C[C@@H]1OC[C@H]2O[C@@H](O[C@@H]3c4cc5c(cc4[C@@H](C4=CC(=O)C(=O)C(NC(=O)NCCCl)=C4)[C@H]4C(=O)OC[C@@H]43)OCO5)[C@H](O)[C@@H](O)[C@@H]2O1 [Example 29, 5'-Desmethoxy-5'-[[(2-chloroethyl)amino]carbonyl]amino etoposide 3',4'-ortho-quinone] | – | 71 µg/mL (≈ 107 µM) | 77 µg/mL | 135% | > 188 µg/mL | – | 79 µg/mL | 77 µg/mL (≈ 116 µM) | 53 µg/mL | 55 µg/mL (≈ 83 µM) | 38 µg/mL | 39 µg/mL (≈ 58.8 µM) | 46 µg/mL | 53 µg/mL (≈ 79.9 µM) |
| COc1cc([C@@H]2c3cc4c(cc3[C@@H](O[C@@H]3O[C@@H]5CO[C@@H](C)O[C@H]5[C@H](O)[C@H]3O)[C@H]3COC(=O)[C@H]23)OCO4)cc(NCN2C(=O)CCC2=O)c1O [Example 13, 3'-Desmethoxy-3'-[(N-succinimido)methyl]amino etoposide] | – | 12.3 µg/mL (≈ 18 µM) | 12.1 µg/mL | 230% | 11 µg/mL (≈ 16.1 µM) | 8.6 µg/mL | 3.3 µg/mL | 3.4 µg/mL (≈ 4.97 µM) | 3.9 µg/mL | 2.7 µg/mL (≈ 3.94 µM) | 8.7 µg/mL | 5.5 µg/mL (≈ 8.03 µM) | 4.1 µg/mL | 3.6 µg/mL (≈ 5.26 µM) |
| COc1cc([C@@H]2c3cc4c(cc3[C@@H](O[C@@H]3O[C@@H]5CO[C@@H](c6cccs6)O[C@H]5[C@H](O)[C@H]3O)[C@H]3COC(=O)[C@H]23)OCO4)cc(OC)c1O [teniposide] | active in the treatment of a variety of cancers including small cell lung cancer, non-lymphocytic leukemia, and non-seminomatous testicular cancer | – | – | – | – | – | – | – | – | – | – | – | – | – |
| COc1cc([C@@H]2c3cc4c(cc3[C@@H](O[C@@H]3O[C@@H]5CO[C@@H](C)O[C@H]5[C@H](O)[C@H]3O)[C@H]3COC(=O)[C@H]23)OCO4)cc(N=Cc2cccc([N+](=O)[O-])c2)c1O [Example 22, 3'-Desmethoxy-3'-[[(3-nitro)phenyl]methylene]amino etoposide] | – | > 250 µg/mL | – | 235% | > 250 µg/mL | – | 43 µg/mL | 36 µg/mL (≈ 50.9 µM) | 16.2 µg/mL | 21 µg/mL (≈ 29.7 µM) | 14.1 µg/mL | 10.9 µg/mL (≈ 15.4 µM) | 13.3 µg/mL | 17 µg/mL (≈ 24.1 µM) |
| COc1cc([C@@H]2c3cc4c(cc3[C@@H](O[C@@H]3O[C@@H]5CO[C@@H](C)O[C@H]5[C@H](O)[C@H]3O)[C@H]3COC(=O)[C@H]23)OCO4)cc(N=Cc2ccsc2)c1O [Example 17, 3'-Desmethyoxy-3'-[(3-thienyl)methylene]amino etoposide] | – | 45 µg/mL (≈ 67.4 µM) | – | 195% | 22 µg/mL (≈ 32.9 µM) | 44 µg/mL | 44 µg/mL | 31 µg/mL (≈ 46.4 µM) | 24 µg/mL | 23 µg/mL (≈ 34.4 µM) | 8.4 µg/mL | 6.7 µg/mL (≈ 10 µM) | 10.1 µg/mL | 12.3 µg/mL (≈ 18.4 µM) |
